Tests used:
[1] = test system: sAPPβ release in SH-SY5Y cells; experiment: sAPPβ release assay; type: cell-based; conditions: 17 h incubation
Experimental: SH-SY5Y cells were cultured in DMEM/F-12 with Glutamax, 10% FCS and 1% non-essential amino acids and cryopreserved and stored at −140° C. at a concentration of 7.5-9.5×10^6 cells per vial. Thaw cells and seed at a conc. of around 10000 cells/well in DMEM/F-12 with Glutamax, 10% FCS and 1% non-essential amino acids to a 384-well tissue culture treated plate, […] cell susp/well. The cell plates were then incubated for 7-24 h at 37° C., 5% CO2. The cell medium was removed, followed by addition of 30 μL compound diluted in DMEM/F-12 with Glutamax, 10% FCS, 1% non-essential amino acids and 1% PeSt to a final conc. of 1% DMSO. The compounds were incubated with the cells for 17 h (overnight) at 37° C., 5% CO2. Meso Scale Discovery (MSD) plates were used for the detection of sAPPβ release. MSD sAPPβ plates were blocked in 1% BSA in Tris wash buffer (40 μL/well) for 1 h on shake at r.t. and washed 1 time in Tris wash buffer (40 μL/well). 20 μL of medium was transferred to the pre-blocked and washed MSD sAPPβ microplates, and the cell plates were further used in an ATP assay to measure cytotoxicity. The MSD plates were incubated with shaking at r.t. for 2 h and the media discarded. 10 μL detection antibody was added (1 nM) per well followed by incubation with shaking at r.t. for 2 h and then discarded. 40 μL Read Buffer was added per well and the plates were read in a SECTOR Imager.

[2] = biological target: T1, human β-Secretase (sBACE-Fc, soluble part AA 1-AA 460) (Homo sapiens (Human), UniProt P56817); experiment: TR-FRET assay; type: biochemical; conditions: standard TR-FRET assay (values without footnote a)
T1 sequence (P56817 22-460): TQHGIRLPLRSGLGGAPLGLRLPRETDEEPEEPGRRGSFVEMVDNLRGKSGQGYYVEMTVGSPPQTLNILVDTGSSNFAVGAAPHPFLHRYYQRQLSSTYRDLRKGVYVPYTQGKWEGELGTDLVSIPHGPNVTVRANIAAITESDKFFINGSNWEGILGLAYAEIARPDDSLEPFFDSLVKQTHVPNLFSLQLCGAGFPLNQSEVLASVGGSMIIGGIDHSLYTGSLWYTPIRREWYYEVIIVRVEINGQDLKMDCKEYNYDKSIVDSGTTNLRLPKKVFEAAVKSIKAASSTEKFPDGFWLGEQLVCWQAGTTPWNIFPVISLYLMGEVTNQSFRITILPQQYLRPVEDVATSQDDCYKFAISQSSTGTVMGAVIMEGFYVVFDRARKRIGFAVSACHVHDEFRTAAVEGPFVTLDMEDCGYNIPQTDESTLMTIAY
Experimental: The β-secretase enzyme used in the TR-FRET is prepared as follows:
(§1) The enzyme (truncated form) was diluted to 6 μg/mL (stock 1.3 mg/mL) and the TruPoint BACE1 Substrate to 200 nM (stock 120 μM) in reaction buffer (NaAcetate, chaps, triton x-100, EDTA pH4.5). Enzyme and compound in dimethylsulphoxide (final DMSO concentration 5%) was mixed and pre-incubated for 10 minutes at RT. Substrate was then added and the reaction was incubated for 15 minutes at RT. The reaction was stopped with the addition of 0.35 vol Stop solution (NaAcetate, pH 9). The fluorescence of the product was measured on a Victor II plate reader with excitation wavelengths of 340-485 nm and emission wavelengths of 590-615 nm. […] The dimethylsulphoxide control, instead of test compound, defined the 100% activity level and 0% activity was defined by wells lacking enzyme (replaced with reaction buffer) or by a saturating dose of a known inhibitor, 2-amino-6-[3-(3-methoxyphenyl)phenyl]-3,6-dimethyl-5H-pyrimidin-4-one.

[3] = biological target: T1, human β-Secretase (sBACE-Fc, soluble part AA 1-AA 460); experiment: Diluted TR-FRET assay; type: biochemical
Experimental: as §1, with “The enzyme (truncated form) was diluted to 6 μg/mL (stock 1.3 mg/mL) and the TruPoint BACE1 Substrate to 200 nM (stock 120 μM) in reaction buffer (NaAcetate, chaps, triton x-100, EDTA pH4.5).” left out, “Substrate was then added and the reaction was incubated for 15 minutes at RT.” left out

[4] = IC50 from the diluted FRET assay (footnote a): 50 times less enzyme, 6.5 h reaction time

Row | SMILES | IC50 [1] | IC50 [2] | IC50 ([1]; Homo sapiens) | other results
1 | CO[C@H]1CC[C@]2(CC1)Cc1ccc(OCCC(F)(F)F)cc1[C@@]21N=C(C)C(N)=N1 (single isomer, unassigned; isomer 1) [11, isomer 1] | 0.7 nM | – | – | –
2 | CC1=N[C@]2(N=C1N)c1cc(OCCCF)ccc1C[C@]21CC[C@@H](OC(F)F)CC1 (single isomer, unassigned; isomer 1) [13, isomer 1] | 1.6 nM | – | – | IC50 [3, 4]: 3 nM
3 | CO[C@H]1CC[C@]2(CC1)Cc1ccc(C#CC3CCC3)cc1[C@]21N=C(C)C(N)=N1 (single isomer, unassigned; isomer 1) [7, isomer 1] | 2 nM | – | – | –
4 | CO[C@H]1CC[C@]2(CC1)Cc1ccc(C#CC(C)C)cc1C21N=C(C)C(N)=N1 (mixture of isomers) [Example 8, (1r,4r)-4-Methoxy-5″-methyl-6′-(3-methylbut-1-yn-1-yl)-3′H-dispiro[cyclohexane-1,2′-indene-1′,2″-imidazol]-4″-amine] | – | – | 1.6 nM | –
5 | CO[C@H]1CC[C@]2(CC1)Cc1ccc(C#CC(C)C)cc1[C@]21N=C(C)C(N)=N1 (single isomer, unassigned; isomer 1) [9, isomer 1] | 0.7 nM | – | – | –
6 | CO[C@H]1CC[C@]2(CC1)Cc1ccc(OCCC(F)(F)F)cc1C21N=C(C)C(N)=N1 (stereo partly drawn) [Example 10, (1r,4r)-4-Methoxy-5″-methyl-6′-(3,3,3-trifluoropropoxy)-3′H-dispiro[cyclohexane-1,2′-indene-1′,2″-imidazol]-4″-amine] | – | – | 0.6 nM | –
7 | CC1=N[C@@]2(N=C1N)c1cc(OCCCF)ccc1C[C@]21CC[C@@H](OC(F)F)CC1 (single isomer, unassigned; isomer 2) [13, isomer 2] | – | 2900 nM | – | –
8 | CC1=NC2(N=C1N)c1cc(OCCCF)ccc1C[C@]21CC[C@@H](OC(C)C)CC1 (stereo partly drawn) [Example 17, (1r,4r)-6′-(3-Fluoropropoxy)-5″-methyl-4-(propan-2-yloxy)-3′H-dispiro[cyclohexane-1,2′-indene-1′,2″-imidazol]-4″-amine] | – | 250 nM | – | –
9 | CO[C@H]1CC[C@]2(CC1)Cc1ccc(OCC(C)F)cc1C21N=C(C)C(N)=N1 (stereo partly drawn) [Example 14, (1r,4r)-6′-(2-Fluoropropoxy)-4-methoxy-5″-methyl-3′H-dispiro[cyclohexane-1,2′-indene-1′,2″-imidazol]-4″-amine] | – | – | 2.5 nM | IC50 [3]: 6.7 nM
10 | CC[C@@H](C)Oc1ccc2c(c1)C1(N=C(C)C(N)=N1)[C@]1(CC[C@H](OC)CC1)C2 (stereo partly drawn) [Example 18, (1r,4r)-6′-[(28)-Butan-2-yloxy]-4-methoxy-5″-methyl-3′H-dispiro[cyclohexane-1,2′-indene-1′,2″-imidazol]-4″-amine] | – | – | 16 nM | –
11 | CO[C@H]1CC[C@]2(CC1)Cc1ccc(C#CC3CCC3)cc1C21N=C(C)C(N)=N1 (mixture of isomers) [Example 6, (1r,4r)-6′-(Cyclobutylethynyl)-4-methoxy-5″-methyl-3′H-dispiro[cyclohexane-1,2′-indene-1′,2″-imidazol]-4″-amine] | – | – | 2.1 nM | –
12 | CO[C@H]1CC[C@]2(CC1)Cc1ccc(OCC(C)(F)F)cc1C21N=C(C)C(N)=N1 (stereo partly drawn) [Example 3, (1r,4r)-6′-(2,2-Difluoropropoxy)-4-methoxy-5″-methyl-3′H-dispiro[cyclohexane-1,2′-indene-1′,2″-imidazol]-4″-amine] | – | – | 2.4 nM | IC50 [3]: 6.7 nM

Second part, led by results:

Row | IC50 [1] | IC50 [2] | IC50 ([1]; Homo sapiens) | SMILES | other results
13 | – | 3700 nM | – | CC1=NC2(N=C1N)c1cc(Br)ccc1C[C@]21CC[C@@H](OC(C)C)CC1 (stereo partly drawn) [Example 16, (1r,4r)-6′-Bromo-5″-methyl-4-(propan-2-yloxy)-3′H-dispiro[cyclohexane-1,2′-indene-1′,2″-imidazol]-4″-amine] | –
14 | – | 13 nM | – | CC1=N[C@@]2(N=C1N)c1cc(OCC(C)C)ccc1C[C@]21CC[C@@H](O)CC1 (single isomer, unassigned; isomer 1) [2, isomer 1] | –
15 | 216 nM | 780 nM | – | CC1=N[C@@]2(N=C1N)c1cc(-c3cc(Cl)cc(C#N)c3)ccc1C[C@]21CC[C@@H](O)CC1 (single isomer, unassigned; isomer 2) [15, isomer 2] | –
16 | 96 nM | 270 nM | – | CC1=N[C@@]2(N=C1N)c1cc(Br)ccc1C[C@]21CC[C@@H](O)CC1 (single isomer, unassigned; isomer 1) [5, isomer 1] | –
17 | – | 1300 nM | – | CO[C@H]1CC[C@]2(CC1)Cc1ccc(O)cc1[C@@]21N=C(C)C(N)=N1 [Example 19, (1r,1′R,4R)-4″-Amino-4-methoxy-5″-methyl-3′H-dispiro[cyclohexane-1,2′-indene-1′,2″-imidazol]-6′-ol] | –
18 | 1.6 nM | – | – | CC1=N[C@]2(N=C1N)c1cc(-c3cc(Cl)cc(C#N)c3)ccc1C[C@]21CC[C@@H](O)CC1 (single isomer, unassigned; isomer 1) [15, isomer 1] | IC50 [3, 4]: 3.2 nM

Reference: patent US9000182B2, “2H-imidazol-4-amine compounds and their use as BACE inhibitors” (AstraZeneca AB, priority 2012, dated 2015)
